Like-named read-outs stand apart in the source and are kept apart here.
Experiments:
mesenteric vascular tone [1] = experiment: Drug effects on mesenteric vascular tone in perfused mouse mesenteric area (phenylephrine-established tone); design: species or system mice; settings: for mesenteric vasodilation: injected intraarterially as a 1 mg bolus; for vasodilation (agonist effect): intra arterial bolus, dose-response, FIG. 1; for dose lower than the dose of Abn-cbd required to produce similar vasodilation: relative to Abn-cbd; for inhibition of 0-1848-induced vasodilation: FIG. 2(B), 2(C)
Experimental: For measuring drug effects on mesenteric vascular tone in mice, sodium pentobarbital-anesthetized mice were laparotornized and a PE50 cannula was inserted distally into the abdominal aorta. Both renal and both femoral arteries were ligated, the heart removed, and the mesenteric area including the liver was perfused with oxygenated Krebs buffer at 36° C., using a peristaltic pump and a constant flow rate of 0.7 ml/min. Perfusion pressure monitored close to the inflow cannula was 25-30 mmHg, and was increased to 60-70 mmHg by the inclusion of 15 μM phenylephrine in the medium. Vasodilator effects were expressed as % relaxation of established tone, 100% being equal to the difference in perfusion pressure in the absence and presence of phenylephrine.
Perfusion pressure monitored near the inflow cannula should be 25-30 mmHg (1 mmHg[…]133 Pa) and is increased to 60-70 mmHg by the inclusion of […] phenylephrine in the medium. Vasodilation is expressed as percent relaxation of established tone, 100% being equal to the difference in perfusion pressure in the absence and presence of phenylephrine.
Evaluation of vasodilator response was performed as in Example 1 except that after addition of either the agonists 0-1602 (FIG. 2A) or 0-1848 (FIG. 2B-2C) as intra arterial bolus injections, the mesenteric preparation was perfused with either drug free buffer (solid circles) or buffer containing […].

CB1 receptors [2] = biological target: T1, CB1 receptors (Rattus norvegicus, UniProt P20272); experiment: 3H-CP-55,940 radioligand binding to P2 membranes from rat brain; settings: concentration of 10 μM
T1 construct: from tissue; host or cells: rat brain P2 membranes

mesenteric vascular tone [3] = experiment: Drug effects on mesenteric vascular tone in perfused mouse mesenteric area (phenylephrine-established tone); design: species or system mice; settings: antagonist at 10 μM in perfusion buffer, FIG. 2(A)
[4] = Neurobehavioral tetrad (tail flick, locomotor activity, ring immobility, core body temperature); assay type: in vivo, mice
From the text: The protocol of the tail-flick test was as follows. The apparatus that was used for the tail-flick test contained a light source placed directly above a photocell connected to a timer. The mouse was held under a cloth by the technician conducting the experiment. The tail of the test animal was placed over the photocell and the light was turned on. When the test animal felt the discomfort of the heat from the light, it was freely able to remove its tail from the lamp. The photocell than sensed that the tail had moved and the timer was stopped. The typical nontreatment reaction time for an animal subjected to this test was about 2-4 seconds. This test involved a spinal reflex action similar to the removal of a finger from a hot stove. In treated animals, the latency to remove the tail lengthens in proportion to the analgesic potency of the drug. No animal was allowed to remain under the lamp for greater than 10 seconds to prevent any burns to the tail. No animal was subjected twice to this test.
Locomotor activity, ring immobility, and core body temperature parameters were measured as described in detail by Smith et al. (J. Pharmacol. Exp.Ther. (1994) 270; 219-227). Briefly, spontaneous locomotor activity is expressed as % inhibition vs. control. Mice were placed in individual activity cages 5 minutes post treatment, and interruption of the photocell beams (16 beams/chamber) were recorded for a 10 minute period using a Digiscan Animal Activity Monitor (Omnitech). Core temperature was measured by a rectal thermistor inserted to 25 mm, before and 30 minutes after administration of Abn-cbd. Catalepsy (ring immobility procedure) was expressed as % of total time spent motionless. Test compound can be injected into a tail vain i.v., and measurements are performed at 5 min (spontaneous motility), min (tail flick latency), 60 min (Core temperature) or 90 min (ring immobility) after drug injection.
Adult ICR mice (25-30 g) were from Harlan (Indianapolis, Ind.). Both male and female animals were used for these studies. Animals were housed four at a cage with standard mouse chow and water ad libitum, and were maintained at […] under a 12:12 light:dark cycle.

mesenteric arterial bed [5] = experiment: Vascular tone in isolated mesenteric arterial bed, with or without antagonist or endothelial denudation; design: species or system rat; settings: 100 μg, species not given
Experimental: The methods used to analyze drug effects on vascular tone in the rat isolated mesenteric arterial bed and to achieve endothelial denudation by brief perfusion with distilled water have been described in detail elsewhere (Wagner et al.(1999), Hypertension 33 (Part II), 429-434). Because of the long lasting vasodilator effect of anandamide, R-methanandamide and abnormal cannabidiol, each preparation was tested with a single dose of the agonist, either in the absence or the presence of an antagonist.

mesenteric arterial bed [6] = settings: cited from earlier work; for vasodilation: rat isolated / perfused mesenteric arterial bed
vanilloid VRI receptors = vanilloid VRI receptors (Homo sapiens, UniProt Q8NER1); settings: cited from earlier work
[7] = Blood pressure in urethane-anaesthetized spontaneous hypertensive (SHR) rats; assay type: in vivo; settings: 5 animals
[8] = cited from earlier work; for neurobehavioral effects: summary statement, no dose
[9] = 10 mg/kg i.v., anesthetized mice; prevented by 3 mg/kg SR141716A; cited from earlier work
[10] = 10 mg/kg i.v., anesthetized rats; prevented by 3 mg/kg SR141716A; cited from earlier work
CB1 receptors [11] = biological target: T1, CB1 receptors; settings: cited from earlier work; for binding to CB1 receptors: summary statement, no concentration

T1 sequence (P20272 whole entry): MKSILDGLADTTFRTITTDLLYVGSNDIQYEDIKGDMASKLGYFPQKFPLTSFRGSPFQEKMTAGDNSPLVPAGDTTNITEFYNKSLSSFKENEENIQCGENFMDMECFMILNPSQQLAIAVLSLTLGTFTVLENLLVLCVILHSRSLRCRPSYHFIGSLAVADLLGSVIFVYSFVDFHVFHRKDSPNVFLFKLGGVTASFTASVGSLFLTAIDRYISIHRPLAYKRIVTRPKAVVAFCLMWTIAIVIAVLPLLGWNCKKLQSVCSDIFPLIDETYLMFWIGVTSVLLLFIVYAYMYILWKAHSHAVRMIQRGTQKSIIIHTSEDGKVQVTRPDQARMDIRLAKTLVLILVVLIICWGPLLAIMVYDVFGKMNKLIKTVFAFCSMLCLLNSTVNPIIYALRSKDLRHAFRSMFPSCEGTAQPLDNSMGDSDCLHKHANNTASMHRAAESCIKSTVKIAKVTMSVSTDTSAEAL
Sequence of vanilloid VRI receptors (Q8NER1 whole entry): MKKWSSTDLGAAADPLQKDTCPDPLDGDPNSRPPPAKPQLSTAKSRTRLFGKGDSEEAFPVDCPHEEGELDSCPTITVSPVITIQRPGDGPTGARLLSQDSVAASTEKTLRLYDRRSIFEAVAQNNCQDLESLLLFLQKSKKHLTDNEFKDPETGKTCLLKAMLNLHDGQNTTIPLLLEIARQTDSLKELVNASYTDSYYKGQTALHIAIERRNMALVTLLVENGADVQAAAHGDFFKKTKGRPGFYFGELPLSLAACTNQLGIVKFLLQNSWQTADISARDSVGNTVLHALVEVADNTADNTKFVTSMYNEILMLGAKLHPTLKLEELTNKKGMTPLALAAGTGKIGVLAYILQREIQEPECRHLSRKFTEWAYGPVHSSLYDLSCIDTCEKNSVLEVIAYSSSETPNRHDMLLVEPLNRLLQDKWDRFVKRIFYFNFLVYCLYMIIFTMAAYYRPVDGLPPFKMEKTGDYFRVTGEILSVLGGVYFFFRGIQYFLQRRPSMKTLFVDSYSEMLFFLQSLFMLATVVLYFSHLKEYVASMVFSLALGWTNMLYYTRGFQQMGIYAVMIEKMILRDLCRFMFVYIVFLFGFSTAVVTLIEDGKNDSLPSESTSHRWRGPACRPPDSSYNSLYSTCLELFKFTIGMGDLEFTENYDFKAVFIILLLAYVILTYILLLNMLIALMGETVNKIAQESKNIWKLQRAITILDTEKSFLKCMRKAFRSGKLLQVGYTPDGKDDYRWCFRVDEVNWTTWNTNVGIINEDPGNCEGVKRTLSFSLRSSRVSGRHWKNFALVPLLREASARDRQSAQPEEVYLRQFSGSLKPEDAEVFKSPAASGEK

## C=C(C)[C@@H]1CCC(C)=CC1c1c(O)cc(C)cc1O (single isomer, unassigned; (-)) [0-1821, (−)-2-(3-3,4-trans-p-menthadien-(1,8)-orcinol]
Mesenteric vascular tone [1]; FIG. 2(A), antagonist in perfusion buffer
  inhibition of 0-1602-induced vasodilation: dose-dependent pronounced inhibition
Mesenteric vascular tone [1]
  mesenteric vasodilation: did not elicit vasodilation
CB1 receptors [2]
  binding to CB1 receptors: no significant binding
Mesenteric vascular tone [3]
  inhibition of the vasodilatory effect of compound 0-1602: almost complete inhibition
[4]; 30 μg/kg
  response in the tetrad of standard neurobehavioral effects: does not elicit a response

## C=C(C)[C@@H]1CCC(C)=CC1c1c(C)cc(O)cc1O (some centres unmarked) [0-1602]
Mesenteric vascular tone [1]
  vasodilation (agonist effect): dose-dependent pronounced vasodilation
  dose lower than the dose of Abn-cbd required to produce similar vasodilation: 80 ×
Mesenteric arterial bed [5]; n=3, P<0.005
  vasodilation after endothelial denudation: 18%±2
  vasodilation in the presence of SR141716A: 15%±3
Mesenteric arterial bed [5]; n=4
  vasodilation: 54%±2
[4]; dose not given
  response in the tetrad of standard neurobehavioral effects: does not elicit a response

## C=C(C)[C@@H]1CCC(C)=CC1c1c(O)cccc1O (some centres unmarked) [0-1847]
Mesenteric vascular tone [1]; antagonist in perfusion buffer
  inhibition of 0-1848-induced vasodilation: dose-dependent pronounced inhibition
Mesenteric vascular tone [1]
  mesenteric vasodilation: did not elicit mesenteric vasodilation
CB1 receptors [2]
  binding to CB1 receptors: no significant binding
[4]; 30 μg/kg
  response in the tetrad of standard neurobehavioral effects: does not elicit a response

## C=C(C)[C@@H]1CCC(C)=CC1c1c(O)c(I)c(C)c(I)c1O (single isomer, unassigned; (-)) [0-1868, (−)-2-(3-3,4-trans-p-menthadien-(1,8)-4,6-diiodoorcinol]
Mesenteric vascular tone [1]; antagonist in perfusion buffer
  inhibition of 0-1848-induced vasodilation: dose-dependent pronounced inhibition
Mesenteric vascular tone [1]
  mesenteric vasodilation: did not elicit mesenteric vasodilation
CB1 receptors [2]
  binding to CB1 receptors: no significant binding
[4]; 30 μg/kg
  response in the tetrad of standard neurobehavioral effects: does not elicit a response

## Cc1c(C(=O)c2cccc3ccccc23)c2cccc3c2n1[C@H](CN1CCOCC1)CO3 [WIN 55212-2]
Mesenteric arterial bed [6]
  vasodilation: do not have a vasodilator effect

## Oc1cc2c(cc1O)CN(C(=S)NCCc1ccc(Cl)cc1)CCC2 [capsazepine]
Vanilloid VRI receptors
  Kd: 285 nM

## CCCCCCC(C)(C)c1cc(O)c2c(c1)OC(C)(C)[C@@H]1CC=C(CO)C[C@@H]21 [HU-210]
Mesenteric arterial bed [6]
  vasodilation: do not have a vasodilator effect

## C=C(C)[C@@H]1CCC(C)=CC1c1ccc(O)cc1O (some centres unmarked) [0-1848]
Mesenteric vascular tone [1]
  vasodilation (agonist effect): dose-dependent pronounced vasodilation
  dose lower than the dose of Abn-cbd required to produce similar vasodilation: 80 ×
[7]
  hypotensive effect (reduction in mean blood pressure): elicits a hypotensive effect
[4]; dose not given
  response in the tetrad of standard neurobehavioral effects: does not elicit a response

## CCCCCc1cc(O)c2c(c1)OC(C)(C)[C@@H]1CCC(C)=C[C@@H]21 [THC, Δ9-trahydrocannabinol]
Mesenteric arterial bed [6]
  vasodilation: do not have a vasodilator effect

## C=C(C)[C@@H]1CCC(C)=CC1c1c(O)cc(O)cc1CCCCC (single isomer, unassigned; (-)) [Abn-cbd, (−)-4-(3-3,4-trans-p-menthadien-1,8)-yl-olivetol]
[8]; doses up to 60 mg/kg, mice
  marijuana-like neurobehavioral effects: does not cause marijuana-like neurobehavioral effects
[8]
  neurobehavioral effects: does not elicit cannabinoid-like neurobehavioral effects
[9]
  hypotension: cause hypotension
[10]
  hypotension: cause hypotension
Mesenteric arterial bed [6]; 100 μM L-NAME and 10 μM indomethacin in the perfusion buffer
  vasodilator response in the presence of L-NAME and indomethacin: remains unchanged
Mesenteric arterial bed [6]; bolus injection of 4 mg, 5 μM capsazepine
  vasodilation in the presence of capsazepine: same long lasting vasodilation
Mesenteric arterial bed [6]
  vasodilation: caused vasodilation
CB1 receptors [11]; concentrations up to 100 uM, rat brain plasma membrane preparation
  displacement of a potent known ligand from CB1 cannabinoid receptors: failed to displace
CB1 receptors [11]
  binding to CB1 receptors: does not bind

## CCCCC/C=C\C/C=C\C/C=C\C/C=C\CCCC(=O)NCCO [anandamide, arachidonyl ethanolamide]
Mesenteric arterial bed [6]
  vasodilation: elicits prolonged vasodilation

## C=C(C)[C@@H]1CCC(C)=C[C@H]1c1c(O)cc(CCCCC)cc1O [cannabidiol]
[8]
  neurobehavioral effects: devoid of neurobehavioral effects
Mesenteric arterial bed [6]; species not stated
  antagonism of the vasodilator effect of Abn-cbd: able to antagonize
  mesenteric vasodilation: does not elicit mesenteric vasodilation
CB1 receptors [11]
  binding to CB1 receptors: does not bind

— US6563009B1, “Vasodilator cannabinoid analogs” (priority 1999, dated 2003)
